Source: patent US5753648A, “Tricyclic benzazepine vasopressin antagonists” (American Cyanamid Company, priority 1996, dated 1998)

What was measured:
[1] = target: T1, oxytocin receptors (Rattus norvegicus, UniProt P70536); test: Oxytocin Receptor Binding
T1 sequence (P70536 1-388): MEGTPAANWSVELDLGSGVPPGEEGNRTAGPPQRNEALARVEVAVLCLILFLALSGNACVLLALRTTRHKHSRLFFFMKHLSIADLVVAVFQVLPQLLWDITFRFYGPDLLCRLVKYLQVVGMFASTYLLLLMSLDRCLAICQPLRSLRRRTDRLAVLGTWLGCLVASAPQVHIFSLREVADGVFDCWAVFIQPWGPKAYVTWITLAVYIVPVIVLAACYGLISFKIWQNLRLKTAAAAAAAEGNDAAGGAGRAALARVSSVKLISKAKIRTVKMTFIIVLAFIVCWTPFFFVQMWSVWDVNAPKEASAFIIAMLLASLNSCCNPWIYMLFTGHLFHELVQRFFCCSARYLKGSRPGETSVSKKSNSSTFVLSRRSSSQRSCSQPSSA
Description: Female Sprague-Dawley rats weighing approximately 200-250 g are injected intramuscularly (i.m.) with 0.3 mg/kg of body weight of diethylstilbestrol (DES). The rats are sacrificed 18 hours later under pentobarbital anesthesia. The uteri are dissected out, cleaned of fat and connective tissues and rinsed in 50 ml of normal saline. The tissue pooled from six rats is homogenized in 50 ml of 0.01 mM Tris.HCl, containing 0.5 mM dithiothreitol and 1.0 mM EDTA, adjusted to pH 7.4, using a polytron at setting 6 with three passes of 10 sec each. The homogenate is passed through two (2) layers of cheesecloth and the filtrate centrifuged at 1000×g for 10 min. The clear supernatant is removed and recentrifuged at 165,000×g for 30 min. The resulting pellet containing the oxytocin receptors is resuspended in 50.0 mM Tris.HCl containing 5.0 mM MgCl2 at pH 7.4, to give a protein concentration of 2.5 mg/ml of tissue suspension. This preparation is used in subsequent binding assays with [^3 H]Oxytocin.
Binding of 3,5-[^3 H]Oxytocin ([^3 H]OT) to its receptors is done in microtiter plates using [^3 H]OT, at various concentrations, in an assay buffer of 50.0 mM Tris.HCl, pH 7.4 and containing 5.0 mM MgCl2, and a mixture of protease inhibitors: BSA, 0.1 mg; aprotinin, 1.0 mg; 1,10-phenanthroline, 2.0 mg; trypsin, 10.0 mg; and PMSF, 0.3 mg per 100 ml of buffer solution. Non-specific binding is determined in the presence of 1.0 uM unlabeled OT. The binding reaction is terminated after 60 min., at 220° C., by rapid filtration through glass fiber filters using a Brandel® cell harvester (Bio-medical Research and Development Laboratories, Inc., Gaithersburg, Md.). Competition experiments are conducted at equilibrium using 1.0 nM [^3 H]OT and varying the concentration of the displacing agents. The concentrations of agent displacing 50% of [^3 H]OT at its sites (IC50) are calculated by a computer assisted LUNDON-2 program (LUNDON SOFTWARE INC., Ohio, USA).

[2] = target: T2, Vasopressin V1 receptor subtype in Human Platelet Membranes (Homo sapiens, UniProt P37288); test: Binding to Vasopressin V1 receptor subtype in Human Platelet Membranes
T2 construct: Frozen platelet rich plasma (PRP), received from the Hudson Valley Blood Services, are thawed to room temperature; tissue Hudson Valley Blood Services; host or cells: human platelets (platelet rich plasma)
Description: Radioligand Binding Experiments with Human Platelet Membranes
Platelet Source: Hudson Valley Blood Services,
Westchester Medical Center, Valhalla, N.Y.
Platelet Membrane Preparation
Frozen platelet rich plasma (PRP), received from the Hudson Valley Blood Services, are thawed to room temperature. The tubes containing the PRP are centrifuged at 16,000×g for 10 min. at 4° C. and the supernatant fluid discarded. The platelets resuspended in an equal volume of 50.0 mM Tris.HCl, pH 7.5 containing 120 mM NaCl and 20.0 mM EDTA. The suspension is recentrifuged at 16,000×g for 10 min. This washing step is repeated one more time. The wash discarded and the lysed pellets homogenized in low ionic strength buffer of Tris.HCl, 5.0 mM, pH 7.5 containing 5.0 mM EDTA. The homogenate is centrifuged at 39,000×g for 10 min. The resulting pellet is resuspended in Tris.HCl buffer, 70.0 mM, pH 7.5 and recentrifuged at 39,000×g for 10 min. The final pellet is resuspended in 50.0 mM Tris.HCl buffer pH 7.4 containing 120 mM NaCl and 5.0 mM KCl to give 1.0-2.0 mg protein per ml of suspension.
Binding to Vasopressin V1 receptor subtype in Human Platelet Membranes
In wells of 96 well format microtiter plate, add 100 μl of 50.0 mM Tris.HCl buffer containing 0.2% BSA and a mixture of protease inhibitors (aprotinin, leupeptin etc.). Then add 20 μl of [^3 H]Ligand (Manning or Arg^8 Vasopressin), to give final concentrations ranging from 0.01 to 10.0 nM. Initiate the binding by adding 80.0 μl of platelet suspension (approx. 100 μg protein). Mix all reagents by pipetting the mixture up and down a few times. Non specific binding is measured in the presence of 1.0 μM of unlabeled ligand (Manning or Arg^8 Vasopressin). Let the mixture stand undisturbed at room temperature for ninety (90) min. Upon this time, rapidly filter off the incubate under vacuum suction over GF/B filters, using a Brandel® Harvester. Determine the radioactivity caught on the filter disks by the addition of liquid scintillant and counting in a liquid scintillator.

[3] = target: T3, Rat Kidney Medullary V2 Receptors (Rattus norvegicus, UniProt Q00788); test: biochemical; type: binding
T3 construct: Medullary tissues from rat kidneys are dissected out; from tissue; host or cells: rat kidney medulla membranes

[4] = target: T4, Human V2 Vasopressin Receptor (Homo sapiens, UniProt P30518); test: Binding to Membranes of Mouse Fibroblast Cell Line (LV-2) Transfected with the cDNA Expressing the Human V2 Vasopressin Receptor; settings: for IC50: LV-2 cells transfected with human V2 receptor cDNA, Table 5, read-out: Vasopressin Binding Human V2 Receptor
T4 construct: expressed in transfected cells; host or cells: mouse fibroblast cell line LV-2
Description: Binding to Membranes of Mouse Fibroblast Cell Line (LV-2) Transfected with the cDNA Expressing the Human V2 Vasopressin Receptor Membrane Preparation
Flasks of 175 ml capacity, containing attached cells grown to confluence, are cleared of culture medium by aspiration. The flasks containing the attached cells are rinsed with 2×5 ml of phosphate buffered saline (PBS) and the liquid aspirated off each time. Finally, 5 ml of an enzyme free dissociation Hank's based solution (Specialty Media, Inc., Lafayette, N.J.) is added and the flasks are left undisturbed for 2 min. The content of all flasks is poured into a centrifuge tube and the cells pelleted at 300×g for 15 min. The Hank's based solution is aspirated off and the cells homogenized with a polytron at setting #6 for 10 sec in 10.0 mM Tris.HCl buffer, pH 7.4 containing 0.25M sucrose and 1.0 mM EDTA. The homogenate is centrifuged at 1500×g for 10 min to remove ghost membranes. The supernatant fluid is centrifuged at 100,000×g for 60 min to pellet the receptor protein. Upon completion, the pellet is resuspended in a small volume of 50.0 mM Tris.HCl buffer, pH 7.4. The protein content is determined by the Lowry method and the receptor membranes are suspended in 50.0 mM Tris.HCl buffer containing 0.1 mM phenylmethylsulfonylfluoride (PMSF) and 0.2% bovine serum albumin (BSA) to give 2.5 mg receptor protein per ml of suspension.
For binding experiments, the following is added in μl volume to wells of a 96 well format of a microtiter plate: 100.0 μl of 100.0 mM Tris.HCl buffer containing 0.2% heat inactivated BSA, 10.0 mM MgCl2 and a mixture of protease inhibitors: leupeptin, 1.0 mg %; aprotinin, 1.0 mg %; 1,10-phenanthroline, 2.0 mg %; trypsin inhibitor, 10.0 mg % and 0.1 mM PMSF, 20.0 μl of [^3 H] Arginine^8, vasopressin (S.A. 75.0 Ci/mmole) at 0.8 nM and the reaction initiated by the addition of 80.0 μl of tissue membranes (200.0 μg tissue protein). The plates are left undisturbed on the bench top for 120 min to reach equilibrium. Non specific binding is assessed in the presence of 1.0 μm of unlabeled ligand, added in 20 μl volume. For test compounds, these are solubilized in 50% dimethylsulfoxide (DMSO) and added in 20.0 μl volume to a final incubation volume of 200 μl. Upon completion of binding, the content of each well is filtered off, using a Brandel® cell Harvester (Gaithersburg, Md.). The radioactivity trapped on the filter disk by the ligand-receptor complex is assessed by liquid scintillation counting in a Packard LS Counter, with an efficiency of 65% for tritium. The data are analyzed for IC50 values by the LUNDON-2 program for competition (LUNDON SOFTWARE, Ohio).

[5] = test system: Endogenous Arginine Vasopressin Antidiuretic (V2) Response in Conscious Rats; test: Antagonism of Endogenous Arginine Vasopressin Antidiuretic (V2) Response in Conscious Rats (urine volume); type: in vivo, rat (Sprague-Dawley); settings: 10 mg/kg rat p.o.; 4 hour collection
Source text: Effects on the Antagonism of Endogenous Arginine Vasopressin Antidiuretic (V2) Response in Conscious Rats with Free Access to Water Drinking Before but not During the Experiment:
Male or female normotensive Sprague-Dawley rats (Charles River Laboratories, Inc., Kingston, N.Y.) of 400-450 g body weight were supplied with Laboratory Rodent Feed #5001 (PMI Feeds, Inc., Richmond, Id.) and water ad libitum. On the day of test, rats were placed individually into metabolic cages equipped with stainless steel screens (to separate the feces from the urine) and funnels for collection of urine. Vehicle or reference agent was given at various oral doses. During the test, rats were not provided with water or food. Urine was collected for four hours after dosing of the test compound. At the end of four hours, urine volume was measured. Urinary osmolality was determined using a Fiske One-Ten Osmometer (Fiske Associates, Norwood, Mass. 02062) or an Advanced CRYOMATIC Osmometer, Model 3C2 (Advanced Instruments, Norwood, Mass.). Determinations of Na^+, K^+ and Cl^- ion were carried out using ion specific electrodes in a Beckman SYNCHRON EL-ISE Electrolyte System analyzer. In the following results, increased urine volume and decreased osmolality relative to AVP-control indicates activity.

T2 sequence (P37288 whole entry): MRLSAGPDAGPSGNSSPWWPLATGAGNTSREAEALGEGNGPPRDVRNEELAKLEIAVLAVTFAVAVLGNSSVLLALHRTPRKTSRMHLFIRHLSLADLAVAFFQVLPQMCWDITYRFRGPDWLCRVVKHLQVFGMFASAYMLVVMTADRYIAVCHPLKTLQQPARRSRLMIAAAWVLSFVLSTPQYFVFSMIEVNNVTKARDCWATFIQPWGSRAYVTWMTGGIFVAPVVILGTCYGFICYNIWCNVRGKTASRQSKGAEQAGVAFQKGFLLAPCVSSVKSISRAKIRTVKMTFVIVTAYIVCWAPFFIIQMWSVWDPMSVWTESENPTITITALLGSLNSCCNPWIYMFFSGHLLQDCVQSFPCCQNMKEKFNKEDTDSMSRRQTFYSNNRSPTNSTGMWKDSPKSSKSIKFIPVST
T4 sequence (P30518 whole entry): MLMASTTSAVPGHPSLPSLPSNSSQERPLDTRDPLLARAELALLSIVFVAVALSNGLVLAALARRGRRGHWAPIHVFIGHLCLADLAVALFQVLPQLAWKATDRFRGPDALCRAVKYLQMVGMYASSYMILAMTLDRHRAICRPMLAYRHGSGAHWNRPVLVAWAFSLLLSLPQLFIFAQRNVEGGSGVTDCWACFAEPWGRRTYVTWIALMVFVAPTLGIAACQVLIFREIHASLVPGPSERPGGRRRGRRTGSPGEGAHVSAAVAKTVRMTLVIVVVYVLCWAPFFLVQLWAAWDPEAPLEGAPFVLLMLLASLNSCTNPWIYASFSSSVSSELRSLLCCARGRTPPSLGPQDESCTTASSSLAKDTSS
T3 sequence (Q00788 whole entry): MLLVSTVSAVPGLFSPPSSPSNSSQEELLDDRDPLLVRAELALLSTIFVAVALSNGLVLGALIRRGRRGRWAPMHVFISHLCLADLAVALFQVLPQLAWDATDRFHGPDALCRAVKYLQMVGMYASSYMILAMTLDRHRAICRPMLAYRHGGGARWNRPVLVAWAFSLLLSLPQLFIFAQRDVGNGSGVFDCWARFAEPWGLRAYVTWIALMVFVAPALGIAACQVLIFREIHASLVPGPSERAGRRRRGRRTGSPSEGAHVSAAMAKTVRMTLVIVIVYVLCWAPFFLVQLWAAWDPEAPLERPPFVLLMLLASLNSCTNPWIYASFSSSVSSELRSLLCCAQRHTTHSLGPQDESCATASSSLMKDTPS

inhibition at 10 µM [1] [%] | IC50 [4] [nM] | SMILES | Urine Volume [5] [ml/4 hrs] | also measured
100 |  | Cc1c(F)cccc1C(=O)Nc1ccc(C(=O)N2Cc3cccn3Cc3ccccc32)cn1 [Example 4] |  | IC50 ([1]; rat uterine membranes, [3H]oxytocin): 670 nM; IC50 ([2]; * V1 receptor subtype in human platelet): 44 nM; IC50 [3]: 1 nM
93 |  | COc1cc(C(=O)Nc2ccc(C(=O)N3Cc4cccn4Cc4ccccc43)cn2)cc(OC)c1OC [Example 5] |  | inhibition at 10 µM ([4]; ** human V2, LV-2 cell membranes, at 10 μM): 47%; inhibition at 10 µM ([2]; 1.5 h, * human platelet V1): 51%
59 |  | COc1cc(C(=O)Nc2ccc(C(=O)N3Cc4ccc(CN(C)C)n4Cc4ccccc43)cn2)cc(OC)c1OC [Example 133, N-[5-[[3-[(Dimethylamino)methyl]-[5H-pyrrolo[2,1-c][1,4]benzodiazepin-10(11H)]yl]carbonyl]-2-pyridinyl]-3,4,5-trimethoxybenzamide] |  | inhibition at 10 µM ([2]; 1.5 h, * human platelet V1): 11%; inhibition at 10 µM ([3]; at 10 μM): 21%
 |  | CN(C)CCCNc1ncccc1C(=O)Nc1ccc(C(=O)N2Cc3cccn3Cc3ccccc32)cc1 [Example 335, N-[4-(5H-pyrrolo[2,1-c][1,4]benzodiazepin-10(11H)-ylcarbonyl)phenyl]-2-[(3-dimethylaminopropyl)amino]pyridine-3-carboxamide] |  | inhibition at 1 µM ([2]; 1.5 h, * human platelet V1, at 1 μM): 100%; inhibition at 1 µM ([3]; at 1 μM): 60%
 | 4.5 | O=C(Nc1ccc(C(=O)N2Cc3cccn3Cc3ccccc32)c(Cl)c1)c1ccccc1-n1cccc1 [Example 377, N-[3-Chloro-4-(5H,11H-pyrrolo{2,1-c][1,4]benzodiazepine-10-carbonyl)-phenyl]-2-pyrrol-1-yl-benzamide] | 13.2 | 
 | 69.1 | O=C(Nc1ccc(C(=O)N2Cc3cccn3Cc3ccccc32)c(Cl)c1)c1cccc2cccnc12 [Example 378, Ouinoline-8-carboxylic acid [4-(5H,11H-pyrrolo[2,1-c][1,4]benzodiazepine-10-carbonyl)-3-phenyl]-amide] | 11.7 | 
 | 12.3 | CN(C)Cc1ccc2n1Cc1ccccc1N(C(=O)c1ccc(NC(=O)C3=C(c4ccccc4)CCC3)cc1Cl)C2 [Example 379, [3-Chloro-4-(3-dimethylaminomethyl-5H,11H-pyrrolo[2,1-c][1,4]benzodiazepine-10-carbonyl)-phenyl]-2-phenylcyclopent-1-enecarboxylic acid amide] | 18.9 | 
